In US20170081698A1, “SURVIVAL ASSAYS FOR METAKARYOTIC STEM CELLS” (priority 2014, published 2017):
Entries after “also recorded” stand apart in the source; their conditions may differ.

Key:
HT-29 cells [1] = test: Survival assay counting large colonies of HT-29 cells plated as single cells in T-flasks, with replating of surviving colonies; type: cell-based, human; settings: for nature of surviving colonies (metakaryotic cells, growth upon passaging): HT-29, appropriate concentrations and durations of exposure; for stem cell number, by fraction of treated cells giving large, growing immortal colonies: HT-29 and CAPAN-1 lines; for exposure period required to assure killing greater than 99% of metakaryotic stem cells: HT-29 or CAPAN-1 cell cultures, certain concentrations; for number of immortal colonies: HT-29 cultures; for treatment level above which large colonies did not contain metakaryotic cells and did not grow further upon replating (mortal colonies): HT-29, concentration x duration of exposure; for applicants' interpretation of selectivity (metakaryotic stem cells versus eukaryotic cells): HT-29 cell population; for sensitivity of eukaryotic cells relative to metakaryotes to killing: cultures of cells derived from human tumors
Excerpt: Large colonies visible to the eye and containing approximately 250 or more cells are enumerated manually or by an electronic colony counter adjusted to recognize colonies of these sizes.
As a practical tactic, the total number of large colonies (>250 cells) are counted and the number appearing on […] to untreated plates identifies the treatment as having killed either or both colonies arising from eukaryotic non-stem cells or from metakaryotic stem cells.
The assay, in one embodiment, involved plating single cells from an exponentially growing HT-29 cell culture in plastic T-flasks and counting the large colonies apparent five weeks after plating. Untreated control flasks provided the total number of immortal colonies and larger mortal colonies.

HT-29 cells [2] = test: Microscopic cytology of bell shaped metakaryotic nuclei in treated HT-29 cells (Hoechst, DAPI, Feulgen staining); type: cell-based, human; settings: for condensation of chromatin in bell shaped metakaryotic nuclei: HT-29 cultures; for aspect of bell shaped nuclei of metakaryotic colonies at the end of treatment: HT-29 colony assay flasks
Capan-1 cells = test: Microscopic cytology of bell shaped metakaryotic nuclei in treated Capan-1 cells; settings: Capan-1, equal to or greater than 10 micromolar for about one or more weeks
[3] = HT-29, 10 micromolar for 24 hours beginning 24 hours after seeding

SMILES: COc1ccc(CCN(C)CCCC(C#N)(c2ccc(OC)c(OC)c2)C(C)C)cc1OC (stereo not drawn) [verapamil]
- nature of surviving colonies (metakaryotic cells, growth upon passaging) (HT-29 cells [1]): did not contain discernable metakaryotic cells nor were they capable of continued growth upon passaging
- stem cell number, by fraction of treated cells giving large, growing immortal colonies (HT-29 cells [1]): reduction of stem cell number
- exposure period required to assure killing greater than 99% of metakaryotic stem cells (HT-29 cells [1]): not less than six
- fluorescent structures in the cytoplasmic organelle of metakaryotic cells (dsDNA dyes Hoechst, DAPI) (HT-29 cells [2]; HT-29, about one or more weeks of treatment): novel large bar structure; also recorded: bright blue fluorescent bars, crosses and more complex figures are observed
- chromatin in bell shaped nuclei after Feulgen staining (HT-29 cells [2]; HT-29, e.g. 10 micromolar for about one or more weeks): condensed into rope like structures
- pyknotic bell shaped nuclei with condensed chromatin (HT-29 cells [2]; HT-29 and CAPAN-1 cell cultures): dead (pyknotic) bell shaped metakaryotic cell nuclei; also recorded: pyknotic structures with bell shaped nuclei displaying grossly condensed chromatin structures
- condensation of chromatin in bell shaped metakaryotic nuclei (HT-29 cells [2]): observed
- nuclei of metakaryotic stem cells (Capan-1 cells): pyknotic nuclei

SMILES: CC(C)Cc1ccc(C(C)C(=O)O)cc1 (stereo not drawn) [ibuprofen]
- number of immortal colonies (HT-29 cells [1]): reduce the number of immortal colonies
- condensation of chromatin in bell shaped metakaryotic nuclei (HT-29 cells [2]): do not induce the condensation of chromatin

SMILES: Cc1ccc(-c2cc(C(F)(F)F)nn2-c2ccc(S(N)(=O)=O)cc2)cc1 [Celecoxib]
- treatment level above which large colonies did not contain metakaryotic cells and did not grow further upon replating (mortal colonies) (HT-29 cells [1]): higher than 10 micromolar weeks
- reduction of the total number of large colonies (HT-29 cells [1]; HT-29, two weeks beginning one day after transfer, ~2 to ~32 micromolar): about 10%

SMILES: O=c1[nH]c(=O)n([C@H]2C[C@H](O)[C@@H](CO)O2)cc1C(F)(F)F [trifluorothymidine]
- effect on eukaryotic cells (HT-29 cells [1]; [3]): kills nearly all eukaryotic cells
- effect on survival of metakaryotic cells (HT-29 cells [1]; [3]): no detectable effect
- nature of surviving large colonies (metakaryotic cells, growth upon replating) (HT-29 cells [1]; HT-29, 24 hour exposure, ~7 to 17 micromolar): immortal and displayed visible metakaryotic cells by the 64 cell colony forming stage; also recorded: contained metakaryotic cells and grew continuously upon replating; also recorded: contained metakaryotic cells upon microscopic inspection and demonstrated the ability to grow continuously upon passaging
- applicants' interpretation of selectivity (metakaryotic stem cells versus eukaryotic cells) (HT-29 cells [1]): exterminated the eukaryotic cells in the HT-29 cell population studied but was not toxic to the metakaryotic stem cells
- sensitivity of eukaryotic cells relative to metakaryotes to killing (HT-29 cells [1]): markedly more sensitive

SMILES: C[C@H]1c2cccc(O)c2C(=O)C2=C(O)[C@]3(O)C(=O)C(C(N)=O)=C(O)[C@@H](N(C)C)[C@@H]3[C@@H](O)[C@@H]21 [doxycycline]
- treatment level above which large colonies did not contain metakaryotic cells and did not grow further upon replating (mortal colonies) (HT-29 cells [1]): higher than 4 micromolar weeks
- reduction of the total number of large colonies (HT-29 cells [1]; HT-29, two weeks beginning one day after transfer, zero to ~10 micromolar): about 8%

SMILES: CN(C)C(=N)N=C(N)N [metformin]
- further growth of remaining colonies upon trypsinized transfer (HT-29 cells [1]; HT-29, 100, 200 and 400 micromolar, five weeks): do not demonstrate further growth
- nature of surviving colonies (metakaryotic cells, growth upon passaging) (HT-29 cells [1]): did not contain discernable metakaryotic cells nor were they capable of continued growth upon passaging
- treatment level above which large colonies did not contain metakaryotic cells and did not grow further upon replating (mortal colonies) (HT-29 cells [1]): > 200 micromolar weeks
- further decrease in total large colony count (HT-29 cells [1]; HT-29, treatment range ~200 to 2000 micromolar weeks): No further significant decrease
- reduction of the total number of large colonies (HT-29 cells [1]; HT-29, ~1000 cells per flask, treatment levels from zero to ~100 micromolar weeks): about 10%
- stem cell number, by fraction of treated cells giving large, growing immortal colonies (HT-29 cells [1]): reduction of stem cell number
- exposure period required to assure killing greater than 99% of metakaryotic stem cells (HT-29 cells [1]): not less than six
- nuclear chromatin condensation in metakaryotic versus eukaryotic cell nuclei (HT-29 cells [2]; 200-2000 micromolar-weeks): metakaryotic but not eukaryotic cell nuclei display nuclear chromatin condensation
- aspect of bell shaped nuclei of metakaryotic colonies at the end of treatment (HT-29 cells [2]): displayed recognizable deformed aspects

SMILES: COc1ccc2cc([C@H](C)C(=O)O)ccc2c1 [naproxen]
- number of immortal colonies (HT-29 cells [1]): reduce the number of immortal colonies

SMILES: CC[C@]1(O)C[C@@H]2CN(CCc3c([nH]c4ccccc34)[C@@](C(=O)OC)(c3cc4c(cc3OC)N(C)[C@H]3[C@@](O)(C(=O)OC)[C@H](OC(C)=O)[C@]5(CC)C=CCN6CC[C@]43[C@@H]65)C2)C1 [vinblastine]
- sensitivity of eukaryotic cells relative to metakaryotes to killing (HT-29 cells [1]): markedly more sensitive

SMILES: O=C(O)CCCc1ccc(N(CCCl)CCCl)cc1 [chlorambucil]
- surviving large colonies (HT-29 cells [1]; HT-29, ~3000 cells per flask, one day exposure, greater than ~10 micromolar): reduced the surviving large colonies monotonically to zero without displaying a plateau
- sensitivity of eukaryotic cells relative to metakaryotes to killing (HT-29 cells [1]): markedly more sensitive

SMILES: COc1cc2c(c(OC)c1OC)-c1ccc(OC)c(=O)cc1[C@@H](NC(C)=O)CC2 [colchicine]
- sensitivity of eukaryotic cells relative to metakaryotes to killing (HT-29 cells [1]): markedly more sensitive

SMILES: CC(=O)Nc1ccc(O)cc1 [acetaminophen]
- nature of surviving colonies (metakaryotic cells, growth upon passaging) (HT-29 cells [1]): did not contain discernable metakaryotic cells nor were they capable of continued growth upon passaging
- treatment level above which large colonies did not contain metakaryotic cells and did not grow further upon replating (mortal colonies) (HT-29 cells [1]): higher than 10 micromolar weeks
- reduction of the total number of large colonies (HT-29 cells [1]; HT-29, two weeks beginning one day after transfer, ~5 to ~25 micromolar): about 10%
- effect of higher concentrations on cells (HT-29 cells [1]; HT-29, two weeks, concentrations higher than the range of the figure): killed all cells
- stem cell number, by fraction of treated cells giving large, growing immortal colonies (HT-29 cells [1]): reduction of stem cell number
- applicants' interpretation of selectivity (metakaryotic stem cells versus eukaryotic cells) (HT-29 cells [1]): exterminated the metakaryotic stem cells but were not cytotoxic to the eukaryotic non-stem cells
- number of immortal colonies (HT-29 cells [1]): reduce the number of immortal colonies
- aspect of bell shaped nuclei of metakaryotic colonies at the end of treatment (HT-29 cells [2]): did not display recognizable deformed pyknotic aspects
- condensation of chromatin in bell shaped metakaryotic nuclei (HT-29 cells [2]): do not induce the condensation of chromatin
